Measurements taken from US9498483B2, “2,3,5-trisubstituted thiophene compounds and uses thereof” (priority 2010, dated 2016).
pIC50: −log10 of the molar value.

Experiments:
[1] = system: HCV replicon I389luc-ubi-neo/NS3-3′/ET in ET (Huh-lucubineo-ET) cells; test: Replicon assay (Biological Example 2), luciferase readout; type: cell-based; details: Hepatitis C virus
Outline: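 EC50 values come from Hill fits of % inhibition of replicon-driven firefly luciferase, relative to no-compound wells. Compounds were serially diluted (10 points, 3-fold, 0.1 nM–50 μM final, 0.5% DMSO) onto ET replicon cells and read after 48 h.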

[2] = target: T1, HCV polymerase (Hepatitis C virus genotype 1b, UniProt Q9WMX2); test: Polymerase assay of Biological Example 1 (IC50 values of Table 3); type: biochemical; details: IC50 values of Table 3, polymerase assay of Biological Example 1; read-out: NS5B-enzyme3
T1 construct: (His)6 (C); made in house; host or cells: XL-1 cells (E. coli, by own knowledge)

[3] = ET cells, luciferase activity 48 hours after compound

Row | SMILES | pIC50 [1, 3] | pIC50 [2] | pIC50 ([1]; between 100 nM and 5.0 uM)
1 | Cn1ccc(S(=O)(=O)N2CC(=O)N(c3cc(-c4ccc(Cl)cc4)sc3C(=O)O)[C@H](C3CCCCC3)C2)n1 [Compound 284, 5-(4-Chloro-phenyl)-3-[(R)-2-cyclohexyl-4-(1-methyl-1H-pyrazole-3-sulfonyl)-6-oxo-piperazin-1-yl]-thiophene-2-carboxylic acid] | ≥ 7.00 | 8.52 | 
2 | O=C(O)c1sc(-c2ccc(F)cc2)cc1N1C(=O)CN(S(=O)(=O)c2ccc(N3CCCCCC3)nc2)C[C@H]1C1CCCCC1 [Compound 285, 3-[(R)-4-(6-Azepan-1-yl-pyridine-3-sulfonyl)-2-cyclohexyl-6-oxo-piperazin-1-yl]-5-(4-fluoro-phenyl)-thiophene-2-carboxylic acid] | ≥ 7.00 | 8.70 | 
3 | O=C(O)c1sc(-c2ccc(F)cc2)cc1N1C(=O)CN(S(=O)(=O)c2ccc(N3CCC(F)(F)C3)nc2)C[C@H]1C1CCCCC1 [Compound 286, 3-{(R)-2-Cyclohexyl-4-[6-(3,3-difluoro-pyrrolidin-1-yl)-pyridine-3-sulfonyl]-6-oxo-piperazin-1-yl}-5-(4-fluoro-phenyl)-thiophene-2-carboxylic acid] | ≥ 7.00 | 9.00 | 
4 | O=C(O)c1sc(-c2ccc(F)cc2)cc1N1C(=O)CN(S(=O)(=O)c2ccc(N3CC[C@H](F)C3)nc2)C[C@H]1C1CCCCC1 [Compound 287, 3-{(R)-2-Cyclohexyl-4-[6-((S)-3-fluoro-pyrrolidin-1-yl)-pyridine-3-sulfonyl]-6-oxo-piperazin-1-yl}-5-(4-fluoro-phenyl)-thiophene-2-carboxylic acid] | ≥ 7.00 | 9.00 | 
5 | CC1(O)CCN(c2ccc(S(=O)(=O)N3CC(=O)N(c4cc(-c5ccc(F)cc5)sc4C(=O)O)[C@H](C4CCCCC4)C3)cn2)C1 (stereo partly drawn) [Compound 288, 3-{(R)-2-Cyclohexyl-4-[6-(3-hydroxy-3-methyl-pyrrolidin-1-yl)-pyridine-3-sulfonyl]-6-oxo-piperazin-1-yl}-5-(4-fluoro-phenyl)-thiophene-2-carboxylic acid] | ≥ 7.00 | 8.70 | 
6 | Cc1ccc(-c2cc(N3C(=O)CN(S(=O)(=O)c4ccc(N5C[C@H]6C[C@@H]5CO6)nc4)C[C@H]3C3CCCCC3)c(C(=O)O)s2)cc1 [Compound 289, 3-{(R)-2-Cyclohexyl-4-[(1R,4R)-6-(2-oxa-5-aza-bicyclo[2.2.1]hept-5-yl)-pyridine-3-sulfonyl]-6-oxo-piperazin-1-yl}-5-p-tolyl-thiophene-2-carboxylic acid] | ≥ 7.00 | 9.00 | 
7 | CC(C)(C)C#Cc1cc(N2C(=O)C(C)(C)OC[C@H]2C2CCCCC2)c(C(=O)O)s1 [Compound 290, 3-((R)-5-Cyclohexyl-2,2-dimethyl-3-oxomorpholin-4-yl)-5-(3,3-dimethyl-but-1-ynyl)-thiophene-2-carboxylic acid] | ≥ 7.00 | 8.70 | 
8 | C[C@H]1OCC(=O)N(c2cc(C#CC(C)(C)C)sc2C(=O)O)[C@@H]1C1CCCCC1 [Compound 291, 3-((2R,3R)-3-Cyclohexyl-2-methyl-5-oxo-morpholin-4-yl)-5-(3,3-dimethyl-but-1-ynyl)-thiophene-2-carboxylic acid] | ≥ 7.00 | 8.10 | 
9 | CC1(C)CCN(c2ccc(S(=O)(=O)N3CC(=O)N(c4cc(-c5ccc(Cl)cc5)sc4C(=O)O)[C@H](C4CCCCC4)C3)cn2)C1 [Compound 292, 5-(4-Chloro-phenyl)-3-{(R)-2-cyclohexyl-4-[6-(3,3-dimethyl-pyrrolidin-1-yl)-pyridine-3-sulfonyl]-6-oxo-piperazin-1-yl}-thiophene-2-carboxylic acid] | ≥ 7.00 | 8.64 | 
10 | O=C(O)c1sc(-c2ccc(Cl)cc2)cc1N1C(=O)COC[C@H]1C1CCCCC1 [Compound 293, 5-(4-Chloro-phenyl)-3-((R)-3-cyclohexyl-5-oxo-morpholin-4-yl)-thiophene-2-carboxylic acid] |  | 8.30 | 5.30 to 7.00
11 | CC(C)(C)C#Cc1cc(N2C(=O)C(CC(=O)N3CCOCC3)OC[C@H]2C2CCCCC2)c(C(=O)O)s1 (stereo partly drawn) [Compound 294, 3-[(R)-5-Cyclohexyl-2-(2-morpholin-4-yl-2-oxo-ethyl)-3-oxo-morpholin-4-yl]-5-(3,3-dimethyl-but-1-ynyl)-thiophene-2-carboxylic acid] |  | 8.15 | 5.30 to 7.00
12 | Cc1ccc(-c2cc(N3C(=O)CN(S(=O)(=O)c4cnn(C)c4)C[C@H]3C3CCCCC3)c(C(=O)O)s2)cc1 [Compound 295, 3-[(R)-2-Cyclohexyl-4-(1-methyl-1H-pyrazole-4-sulfonyl)-6-oxo-piperazin-1-yl]-5-p-tolyl-thiophene-2-carboxylic acid] | ≥ 7.00 | 8.40 | 
13 | CCn1cc(S(=O)(=O)N2CC(=O)N(c3cc(-c4ccc(C)cc4)sc3C(=O)O)[C@H](C3CCCCC3)C2)cn1 [Compound 296, 3-[(R)-2-Cyclohexyl-4-(1-ethyl-1H-pyrazole-4-sulfonyl)-6-oxo-piperazin-1-yl]-5-p-tolyl-thiophene-2-carboxylic acid] | ≥ 7.00 | 8.30 | 
14 | Cc1ccc(-c2cc(N3C(=O)CN(S(=O)(=O)c4cn(C)c(C)n4)C[C@H]3C3CCCCC3)c(C(=O)O)s2)cc1 [Compound 298, 3-[(R)-2-Cyclohexyl-4-(1,2-dimethyl-1H-imidazole-4-sulfonyl)-6-oxo-piperazin-1-yl]-5-p-tolyl-thiophene-2-carboxylic acid] | ≥ 7.00 | 9.00 | 
15 | CC(C)(C)C#Cc1cc(N2C(=O)C(CCCO)OC[C@H]2C2CCCCC2)c(C(=O)O)s1 (stereo partly drawn) [Compound 299, 3-[(R)-5-Cyclohexyl-2-(3-hydroxy-propyl)-3-oxo-morpholin-4-yl]-5-(3,3-dimethyl-but-1-ynyl)-thiophene-2-carboxylic acid] | ≥ 7.00 | 8.30 | 
16 | Cc1ccc(-c2cc(N3C(=O)CN(S(=O)(=O)c4ccc(C(F)(F)F)nc4)C[C@H]3C3CCCCC3)c(C(=O)O)s2)cc1 [Compound 300, 3-[(R)-2-Cyclohexyl-6-oxo-4-(6-trifluoromethyl-pyridine-3-sulfonyl)-piperazin-1-yl]-5-p-tolyl-thiophene-2-carboxylic acid] |  | 7.51 | 5.30 to 7.00
17 | Cc1ccc(-c2cc(N3C(=O)CN(S(=O)(=O)c4cnn(CC(C)C)c4)C[C@H]3C3CCCCC3)c(C(=O)O)s2)cc1 [Compound 301, 3-[(R)-2-Cyclohexyl-4-(1-isobutyl-1H-pyrazole-4-sulfonyl)-6-oxo-piperazin-1-yl]-5-p-tolyl-thiophene-2-carboxylic acid] | ≥ 7.00 | 8.40 | 
18 | Cc1ccc(-c2cc(N3C(=O)CN(S(=O)(=O)c4ccc(C)nc4)C[C@H]3C3CCCCC3)c(C(=O)O)s2)cc1 [Compound 302, 3-[(R)-2-Cyclohexyl-4-(6-methyl-pyridine-3-sulfonyl)-6-oxo-piperazin-1-yl]-5-p-tolyl-thiophene-2-carboxylic acid] | ≥ 7.00 | 8.52 | 
19 | Cc1ccc(-c2cc(N3C(=O)CN(S(=O)(=O)c4ccc(C(C)(C)C)nc4)C[C@H]3C3CCCCC3)c(C(=O)O)s2)cc1 [Compound 303, 3-[(R)-4-(6-tert-Butyl-pyridine-3-sulfonyl)-2-cyclohexyl-6-oxo-piperazin-1-yl]-5-p-tolyl-thiophene-2-carboxylic acid] | ≥ 7.00 | 8.40 | 
20 | CCc1ccc(S(=O)(=O)N2CC(=O)N(c3cc(-c4ccc(C)cc4)sc3C(=O)O)[C@H](C3CCCCC3)C2)cn1 [Compound 304, 3-[(R)-2-Cyclohexyl-4-(6-ethyl-pyridine-3-sulfonyl)-6-oxo-piperazin-1-yl]-5-p-tolyl-thiophene-2-carboxylic acid] | ≥ 7.00 | 8.30 | 
21 | Cc1ccc(-c2cc(N3C(=O)CN(S(=O)(=O)c4cnc(C)c(C)c4)C[C@H]3C3CCCCC3)c(C(=O)O)s2)cc1 [Compound 305, 3-[(R)-2-Cyclohexyl-4-(5,6-dimethyl-pyridine-3-sulfonyl)-6-oxo-piperazin-1-yl]-5-p-tolyl-thiophene-2-carboxylic acid] | ≥ 7.00 | 8.40 | 
22 | COCCNCC1OC[C@@H](C2CCCCC2)N(c2cc(C#CC(C)(C)C)sc2C(=O)O)C1=O (stereo partly drawn) [Compound 307, 3-{(R)-5-Cyclohexyl-2-[(2-methoxy-ethylamino)-methyl]-3-oxo-morpholin-4-yl}-5-(3,3-dimethyl-but-1-ynyl)-thiophene-2-carboxylic acid] | ≥ 7.00 | 8.22 | 
23 | CC(C)(C)C#Cc1cc(N2C(=O)OCCC2C2CCCCC2)c(C(=O)O)s1 (stereo not shown) [Compound 308, 3-(4-Cyclohexyl-2-oxo-[1,3]oxazinan-3-yl)-5-(3,3-dimethyl-but-1-ynyl)-thiophene-2-carboxylic acid] | ≥ 7.00 | 7.85 | 
24 | CC(C)(C)C#Cc1cc(N2C(=O)COC[C@H]2C2CCCCC2)c(C(=O)NS(C)(=O)=O)s1 [Compound 309, N-[3-((R)-3-Cyclohexyl-5-oxo-morpholin-4-yl)-5-(3,3-dimethyl-but-1-ynyl)-thiophene-2-carbonyl]-methanesulfonamide] |  | 7.27 | 5.30 to 7.00
25 | CC(C)(C)C#Cc1cc(N2C(=O)C(CN3CCOCC3)OC[C@H]2C2CCCCC2)c(C(=O)O)s1 (stereo partly drawn) [Compound 310, 3-((R)-5-Cyclohexyl-2-morpholin-4-ylmethyl-3-oxo-morpholin-4-yl)-5-(3,3-dimethyl-but-1-ynyl)-thiophene-2-carboxylic acid] | ≥ 7.00 | 8.40 | 
26 | CC(C)(C)C#Cc1cc(N2C(=O)[C@@](C)(CCCO)OC[C@H]2C2CCCCC2)c(C(=O)O)s1 [Compound 311, 3-[(2R,5R)-5-Cyclohexyl-2-(3-hydroxy-propyl)-2-methyl-3-oxo-morpholin-4-yl]-5-(3,3-dimethyl-but-1-ynyl)-thiophene-2-carboxylic acid] | ≥ 7.00 | 8.70 | 
